This assay deals with salicylate responsive promoter sequence of the PR1 (pathogenesis-related protein 1) gene (AT2G14610). Nature of the assay: Induction of defense gene expression in Arabidopsis thaliana (PR1 promoter-GFP reporter plants). The class given is in vivo. To be noted: 300 ppm, 3rd day after spraying; mock treated leaves set as 1.00. The protocol:
Arabidopsis thaliana reporter plants containing the coding sequence of a green fluorescent protein (GFP) linked to the salicylate responsive promoter sequence of the PR1 (pathogenesis-related protein 1) gene (AT2G14610) were grown for five days and then sprayed with compounds. On the 3rd day after spraying, plant fluorescence was assessed with a MacroFluo instrument from Leica Microsystems (Wetzlar, Germany). Fluorescences were quantified with the Meta-Morph Microscopy Automation & Image Analysis Software (Molecular Devices, Sunnyvale, Calif., United States). Background fluorescence in mock treated leaves was set as 1.00.

Molecules are shown by their SMILES.

Consider `O=C(O)c1ccccc1O` [Salicylic acid], for which the relative fluorescence value stood at 2.70.

(Values after patent US20230159486A1, “SUBSTITUTED THIOPHENECARBOXAMIDES AND ANALOGUES AS ANTIBACTERIALS AGENTS” (Bayer Aktiengesellschaft, priority 2018, published 2023).)
